The text below walks through data of ChEMBL document CHEMBL1201862, “PubChem BioAssay data set” (2004).

Some test systems named below: SNB-19; HCC 2998; Hs-578T; T47D; KM12; SW-620; HL-60; UACC-257; ACHN; OVCAR-4; M14; SK-OV-3; CCRF-CEM; MDA-MB-435; HOP-62; K562; NCI-H522; A498; NCI-H226.
Experiment in all cases: DTP human tumour cell line panel, 48 h

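Following 48 hours of exposure in 96-well plates, responses at five concentrations were used to interpolate endpoints linearly. Here, GI50 denotes the concentration required for 50% inhibition of growth.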 The source made the active and inactive calls. Rule as the data show it: active = GI50 up to about 1.1 µM and inactive = higher.

What is called GI50 is the concentration at which growth is held to half of that of the control. As to `Brc1ccc(-c2cc(-c3ccc4c(c3)OCO4)c(-c3cccs3)n2Cc2ccccc2)cc1`, the GI50 with SNB-19, in the assay with HCC 2998, in the assay with Hs-578T, with T47D, with KM12 and with SW-620 was > 100 µM (inactive) in each case. The GI50 in the assay with HL-60, with UACC-257, in the assay with ACHN, in the assay with OVCAR-4, in the assay on M14 and with SK-OV-3 was > 100 µM (inactive) in each case. Moreover, the GI50 in the assay with CCRF-CEM, in the assay on MDA-MB-435, with HOP-62 and in the assay with K562 was > 100 µM (inactive) each time.
On to `Cc1ccc(SC(=O)N2C(=S)N=C(NC3CCCCC3)C23CCCCC3)cc1`, for which the GI50 in the assay on SNB-19 was > 100 µM (inactive); in the assay on HCC 2998, > 100 µM (inactive); in the assay on Hs-578T, 62.2 µM (inactive); in the assay with T47D, 52.1 µM (inactive); in the assay with NCI-H522 it was 65.8 µM (inactive); in the assay on KM12, 69.7 µM (inactive). Also, the GI50 was > 100 µM (inactive) in the assay on SW-620; 38.6 µM (inactive) with HL-60; 82.8 µM (inactive) with UACC-257; 80 µM (inactive) with ACHN; > 100 µM (inactive) in the assay on OVCAR-4; > 100 µM (inactive) with M14. Further, the GI50 is > 100 µM (inactive) in the assay on SK-OV-3; 29 µM (inactive) in the assay on CCRF-CEM; > 100 µM (inactive) in the assay with MDA-MB-435; > 100 µM (inactive) in the assay with HOP-62; > 100 µM (inactive) with K562.
Take `O=C1/C(=C\c2ccc(Cl)cc2)N=C(c2ccccc2)N1n1c(=O)cn[nH]c1=S`: the GI50 in the assay on SNB-19 was 54.3 µM (inactive); in the assay with HCC 2998, 84.3 µM (inactive); in the assay on T47D, 13.5 µM (inactive); in the assay on NCI-H522, 15.8 µM (inactive); with KM12, > 100 µM (inactive); in the assay on A498 it was > 100 µM (inactive). Further, the GI50 was 18.1 µM (inactive) in the assay on SW-620; 18.2 µM (inactive) in the assay on HL-60; 29.5 µM (inactive) with UACC-257; > 100 µM (inactive) in the assay on ACHN; 23.6 µM (inactive) with OVCAR-4; > 100 µM (inactive) with M14. Also, the GI50 in the assay with SK-OV-3 is > 100 µM (inactive); in the assay on CCRF-CEM it was 2.56 µM (inactive); in the assay with MDA-MB-435, 30.5 µM (inactive); in the assay with HOP-62, 52.2 µM (inactive); in the assay with K562, 16.9 µM (inactive).
For `CCOC(=O)Cc1nn2c(=O)cc(C)nc2s1`, the GI50 in the assay with SNB-19, in the assay with NCI-H226, with HCC 2998, in the assay with Hs-578T, in the assay with T47D and in the assay on NCI-H522 was > 100 µM (inactive) in each case. The GI50 with KM12, in the assay with SW-620, in the assay on HL-60, in the assay on UACC-257, in the assay on ACHN and in the assay on OVCAR-4 was > 100 µM (inactive) in each case. For the same compound, the GI50 in the assay with M14, in the assay on SK-OV-3, in the assay with CCRF-CEM, with MDA-MB-435, in the assay on HOP-62 and with K562 was > 100 µM (inactive) in each case.
For `Nc1ccc2c(c1)C(=O)N1CCC[C@H]1C(=O)N2`, the GI50 with SNB-19, with NCI-H226, in the assay on HCC 2998, with T47D, in the assay with NCI-H522 and in the assay with KM12 was > 100 µM (inactive) each time. The GI50 in the assay on A498, in the assay on SW-620, in the assay on UACC-257, in the assay on ACHN, with OVCAR-4 and in the assay with M14 was > 100 µM (inactive) throughout. In addition, the GI50 with SK-OV-3 is > 100 µM (inactive); in the assay on CCRF-CEM it was 1.38 µM (inactive); with MDA-MB-435 it was > 100 µM (inactive); in the assay with HOP-62, > 100 µM (inactive); with K562, > 100 µM (inactive).
Regarding `Cc1cccc2c1Oc1ccccc1C2NC(=O)c1ccc([N+](=O)[O-])cc1` (stereo not given), the GI50 in the assay with SNB-19 was > 100 µM (inactive); in the assay on NCI-H226 it was 15.6 µM (inactive); in the assay with Hs-578T it was 29.4 µM (inactive); in the assay with T47D, > 100 µM (inactive); in the assay on NCI-H522, > 100 µM (inactive); in the assay on KM12, > 100 µM (inactive). For the same compound, the GI50 in the assay on A498 is 76.4 µM (inactive); with SW-620 it was > 100 µM (inactive); in the assay on HL-60, > 100 µM (inactive); in the assay with UACC-257, > 100 µM (inactive); in the assay with ACHN it was > 100 µM (inactive); in the assay with OVCAR-4, 32.2 µM (inactive). The GI50 in the assay on M14 is > 100 µM (inactive); with CCRF-CEM it was > 100 µM (inactive); in the assay on HOP-62 it was 28.8 µM (inactive); in the assay with K562, > 100 µM (inactive).
Consider `N=C(N)/N=C(\N)Nc1cnccn1`, for which the GI50 in the assay with SNB-19, in the assay with NCI-H226, with HCC 2998, in the assay on T47D, with NCI-H522 and in the assay on KM12 was > 100 µM (inactive) throughout. Moreover, the GI50 in the assay on A498, with SW-620, with HL-60, in the assay on UACC-257, in the assay on ACHN and in the assay with OVCAR-4 was > 100 µM (inactive) in each case. Moreover, the GI50 with M14, in the assay on SK-OV-3, in the assay on CCRF-CEM, in the assay with MDA-MB-435, in the assay with HOP-62 and with K562 was > 100 µM (inactive) throughout.
For `COC(=O)C1=C(C(=O)OC)C(C(=O)c2ccc(Br)cc2)N2N=C(c3ccc(Cl)cc3)C=CC12` (stereo not given), the GI50 in the assay with SNB-19 is > 100 µM (inactive); in the assay with NCI-H226, > 100 µM (inactive); in the assay with HCC 2998, > 100 µM (inactive); in the assay with Hs-578T it was > 100 µM (inactive); in the assay with NCI-H522, 26.2 µM (inactive); in the assay on KM12, 14.5 µM (inactive). The GI50 in the assay with A498, in the assay with SW-620, in the assay on HL-60, in the assay on UACC-257, in the assay on ACHN and in the assay on OVCAR-4 was > 100 µM (inactive) in each case. In addition, the GI50 in the assay on M14, with SK-OV-3, in the assay with CCRF-CEM, with MDA-MB-435, in the assay with HOP-62 and with K562 was > 100 µM (inactive) each time.
As to `SC[C@@H]1COC[C@H](CS)S1`, the GI50 in the assay with SNB-19, in the assay on HCC 2998, in the assay with T47D, in the assay with NCI-H522, in the assay with KM12 and in the assay on SW-620 was > 100 µM (inactive) throughout. For the same compound, the GI50 with HL-60, in the assay with UACC-257, in the assay on OVCAR-4, with M14, in the assay on SK-OV-3 and with CCRF-CEM was > 100 µM (inactive) in each case. The GI50 with MDA-MB-435, with HOP-62 and with K562 was > 100 µM (inactive) each time.
Turning to `Oc1ccc([C@H]2c3c(O)cc(O)cc3C3c4c(cc(O)cc4[C@@H]2[C@H]2c4cc(O)cc5c4C(c4cc(O)cc(O)c4[C@@H]2c2ccc(O)cc2)[C@@H](c2ccc(O)cc2)O5)O[C@@H]3c2ccc(O)cc2)cc1` (stereo not given in full), the GI50 in the assay on SNB-19 was 3.35 µM (inactive); with NCI-H226, > 100 µM (inactive); with HCC 2998 it was 0.452 µM (active); in the assay with Hs-578T it was 0.0497 µM (active); in the assay on T47D, 0.536 µM (active); with NCI-H522, 7.45 µM (inactive). For the same compound, the GI50 is 0.0211 µM (active) in the assay with KM12; 2.48 µM (inactive) with HL-60; 0.356 µM (active) in the assay with UACC-257; 6.93 µM (inactive) with ACHN; 0.83 µM (active) with OVCAR-4; 6.25 µM (inactive) in the assay on M14. Moreover, the GI50 was 1.53 µM (inactive) in the assay on CCRF-CEM, 2.59 µM (inactive) in the assay with MDA-MB-435, 1.09 µM (active) in the assay with HOP-62 and 35.2 µM (inactive) with K562.
As for `COC(=O)c1cc(C)ccc1/C=C1\Cc2cc(C)c(C)cc2C1=O`, the GI50 with SNB-19 is 29.9 µM (inactive); in the assay with NCI-H226 it was > 100 µM (inactive); in the assay on HCC 2998, > 100 µM (inactive); in the assay on Hs-578T, 38.8 µM (inactive); in the assay on T47D it was > 100 µM (inactive); with NCI-H522 it was > 100 µM (inactive). In addition, the GI50 in the assay with KM12 was > 100 µM (inactive); in the assay on A498, 68.9 µM (inactive); in the assay with SW-620, > 100 µM (inactive); in the assay with HL-60, > 100 µM (inactive); in the assay with UACC-257, > 100 µM (inactive); with ACHN, > 100 µM (inactive). For the same compound, the GI50 in the assay with OVCAR-4 was > 100 µM (inactive); in the assay on M14 it was > 100 µM (inactive); with CCRF-CEM, 0.108 µM (active); with HOP-62 it was 39 µM (inactive); in the assay with K562, 89.3 µM (inactive).
